Measurements as given in patent US9169241B2, “Quinolinyloxyphenylsulfonamides” (Max-Planck-Gesellschaft Zur Forderung der Wissenschaften …, priority 2009, dated 2015).
Read-outs that look alike come from different tables or passages of the source.

Experiments:
[1] = system: Hs578T; experiment: Matrigel outgrowth assay/branching assay; assay type: cell-based; conditions: Homo sapiens, Hs-578T; HS578T cell line; Table Ib; read-out: Total branching inhibition in Matrigel HS578T
Summary of the method: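 Matrigel 3 mg/ml, polymerized 1 h 37° C; 5000 cells/well + cmpd 3.125/1.56/0.78 μM or DMSO. Imaged 48/72/96 h, 5× objective. Positive = total branching block.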

[2] = system: C8161; experiment: Cell vitality assay (ATP assay, CellTiter-Glo); assay type: cell-based; conditions: Homo sapiens; C8161, 72 h; Table IIa; read-out: IC50 ATP-Assay after 72 h C8161
Summary of the method: (§1)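 IC50s reflect 50% loss of ATP-dependent luminescence versus DMSO control after a 72 h treatment of 1000 cells per well across 0.195–12.5 μM compound.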

[3] = system: A172; experiment: Cell vitality assay (ATP assay, CellTiter-Glo); assay type: cell-based; conditions: Homo sapiens, A 172; A172, 72 h; Table IIa; read-out: IC50 ATP-Assay after 72 h A172
Summary of the method: as §1

[4] = system: SF763; experiment: Cell vitality assay (ATP assay, CellTiter-Glo); assay type: cell-based; conditions: SF763, 72 h; Table IIa; read-out: IC50 ATP-Assay after 72 h SF763
Summary of the method: as §1

[5] = system: Hs578T; experiment: Cell vitality assay (ATP assay, CellTiter-Glo); assay type: cell-based; conditions: Homo sapiens, Hs-578T, 72 h
Summary of the method: as §1

[6] = system: MDA-MB231; experiment: Cell vitality assay (ATP assay, CellTiter-Glo); assay type: cell-based; conditions: Homo sapiens, MDA-MB-231
Summary of the method: as §1

[7] = system: U138; experiment: Cell vitality assay (ATP assay, CellTiter-Glo); assay type: cell-based; conditions: U138, 72 h; Table IIa; read-out: IC50 ATP-Assay after 72 h U138
Summary of the method: as §1

[8] = system: U118; experiment: Cell vitality assay (ATP assay, CellTiter-Glo); assay type: cell-based
Summary of the method: as §1

[9] = system: SF126; experiment: Cell vitality assay (ATP assay, CellTiter-Glo); assay type: cell-based; conditions: Homo sapiens, SF-126
Summary of the method: as §1

[10] = system: indicated cell line; experiment: Wound healing migration assay (Table IV); assay type: cell-based; conditions: compounds at 12.5, 6.25, 3.125 μM, 48 h-72 h
Summary of the method: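 Compound exposure at 12.5, 6.25 and 3.125 μM, with DMSO control, on scratch-wounded monolayers (150000 cells/24 well, overnight). Wound closure imaged by microscopy, fixed with crystal violet after 48 h or 72 h depending on cell line; IC50 is the concentration giving 50% wound size between t0 and t48/t72.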

[11] = HS578T cell line, Table Ib, read-out: IC50 ATP-Assay HS578T after 72 h
[12] = Hs578T, Table IIa, read-out: IC50 ATP-Assay after 72 h Hs578T
[13] = MDA-MB231, 72 h, Table IIa, read-out: IC50 ATP-Assay after 72 h MDA-MB231
[14] = U118, 72 h, Table IIa, read-out: IC50 ATP-Assay after 72 h U118
[15] = SF126, 72 h, Table IIa, read-out: IC50 ATP-Assay after 72 h SF126
[16] = Homo sapiens, A 172, A172 cells, read-out: IC50 Wound healing Assay A172
[17] = Homo sapiens, SF-126, SF126 cells, read-out: IC50 Wound healing Assay SF126
[18] = Homo sapiens, C8161 cells, read-out: IC50 Wound healing Assay C8161
[19] = SF763 cells, read-out: IC50 Wound healing Assay SF763
[20] = U118 cells, read-out: IC50 Wound healing Assay U118

IC50 [6, 13] [µM]	IC50 [10, 16] [µM]	IC50 [10, 17] [µM]	IC50 [10, 18] [µM]	IC50 [10, 19] [µM]	IC50 [10, 20] [µM]	melting point [°C]	Structure (SMILES)	IC50 [1] [µM]	IC50 [2] [µM]	IC50 [3] [µM]	IC50 [4] [µM]	IC50 [5, 11] [µM]	IC50 [5, 12] [µM]	IC50 [7] [µM]	IC50 [8, 14] [µM]	IC50 [9, 15] [µM]	IC50 ([6]; cell vitality assay, MDA-MB231, Table IIc, read-out: IC50 MDA-MB231) [µM]	IC50 ([8]; cell vitality assay, U118, Table IIc, read-out: IC50 U118) [µM]	IC50 ([9]; cell vitality assay, SF126, Table IIb, read-out: IC50 SF126) [µM]
12.5 to 50	≤ 12.5	≤ 12.5	≤ 12.5	≤ 12.5	≤ 12.5	118 to 120	COc1cc2c(Oc3ccc(NS(=O)(=O)c4ccc(F)cc4F)cc3F)ccnc2cc1OCCCN1CCCC(C)C1 (centres unmarked) [Example 47, 2,4-Difluoro-N-(3-fluoro-4-{6-methoxy-7-[3-(3-methyl-piperidin-1-yl)-propoxy]-quinolin-4-yloxy}-phenyl)-benzenesulfonamide]	≤ 10	12.5 to 50	≤ 12.5	≤ 12.5	≤ 12.5	≤ 12.5	≤ 12.5	≤ 12.5	≤ 12.5	–	–	–
12.5 to 50	≤ 12.5	≤ 12.5	≤ 12.5	≤ 12.5	≤ 12.5	190 to 192	COc1cc2c(Oc3ccc(NS(=O)(=O)c4c(F)cccc4F)cc3F)ccnc2cc1OCCCN1CCOCC1 [Example 77, 2,6-Difluoro-N-{3-fluoro-4-[6-methoxy-7-(3-morpholin-4-yl-propoxy)-quinolin-4-yloxy]-phenyl}-benzenesulfonamide]	≤ 10	≤ 12.5	≤ 12.5	≤ 12.5	≤ 12.5	≤ 12.5	≤ 12.5	≤ 12.5	12.5 to 50	–	–	–
≤ 12.5	≤ 12.5	≤ 12.5	≤ 12.5	≤ 12.5	≤ 12.5	146 to 147	COc1cc2c(Oc3ccc(NS(=O)(=O)c4cccc(Oc5ccccc5)c4)cc3F)ccnc2cc1OCCCN1CCCCC1 [Example 10, N-{3-Fluoro-4-[6-methoxy-7-(3-piperidin-1-yl-propoxy)-quinolin-4-yloxy]-phenyl}-3-phenoxy-benzenesulfonamide]	≤ 10	≤ 12.5	≤ 12.5	≤ 12.5	12.5 to 50	12.5 to 50	≤ 12.5	≤ 12.5	≤ 12.5	–	–	–
≤ 12.5	–	–	12.5 to 50	12.5 to 50	–	149 to 151	COc1cc2c(Oc3ccc(NS(=O)(=O)c4cc(C)ccc4F)cc3F)ccnc2cc1OCCCN1CCCC(C)C1 (centres unmarked) [Example 55]	≤ 10	≤ 12.5	–	12.5 to 50	12.5 to 50	12.5 to 50	12.5 to 50	12.5 to 50	≤ 12.5	–	–	–
≤ 12.5	–	–	≤ 12.5	≤ 12.5	–	113 to 116	COc1cc2c(Oc3ccc(NS(=O)(=O)c4c(Cl)cccc4Cl)cc3F)ccnc2cc1OCCCN1CCN(C)CC1 [Example 32, 2,6-Dichloro-N-(3-fluoro-4-{6-methoxy-7-[3-(4-methyl-piperazin-1-yl)-propoxy]-quinolin-4-yloxy}-phenyl)-benzenesulfonamide]	≤ 10	≤ 12.5	–	≤ 12.5	–	≤ 12.5	≤ 12.5	≤ 12.5	≤ 12.5	–	–	–
≤ 12.5	–	–	≤ 12.5	≤ 12.5	–	96 to 98	COc1cc2c(Oc3ccc(NS(=O)(=O)c4ccccc4Cl)cc3F)ccnc2cc1OCCCN1CCN(C)CC1 [Example 29, 2-Chloro-N-(3-fluoro-4-{6-methoxy-7-[3-(4-methyl-piperazin-1-yl)-propoxy]-quinolin-4-yloxy}-phenyl)-benzenesulfonamide]	≤ 10	≤ 12.5	–	12.5 to 50	–	12.5 to 50	≤ 12.5	≤ 12.5	≤ 12.5	–	–	–
12.5 to 50	–	–	≤ 12.5	12.5 to 50	–	134 to 135	COc1cc2c(Oc3ccc(NS(=O)(=O)c4ccccc4C(F)(F)F)cc3F)ccnc2cc1OCC(=O)N(C)C [Example 93, 2-{4-[2-Fluoro-4-(2-trifluoromethyl-benzenesulfonylamino)-phenoxy]-6-methoxy-quinolin-7-yloxy}-N,N-dimethyl-acetamide]	≤ 10	≤ 12.5	–	12.5 to 50	–	≤ 12.5	12.5 to 50	≤ 12.5	≤ 12.5	–	–	–
≤ 12.5	–	–	12.5 to 50	≤ 12.5	–	146 to 147	COc1cc2c(Oc3ccc(NS(=O)(=O)c4cccc(Oc5ccccc5)c4)cc3F)ccnc2cc1OCCCN1CCCC(C)C1 (centres unmarked) [Example 59, N-(3-Fluoro-4-{6-methoxy-7-[3-(3-methyl-piperidin-1-yl)-propoxy]-quinolin-4-yloxy}-phenyl)-3-phenoxy-benzenesulfonamide]	≤ 10	≤ 12.5	–	≤ 12.5	≤ 12.5	≤ 12.5	≤ 12.5	12.5 to 50	12.5 to 50	–	–	–
≤ 12.5	–	–	12.5 to 50	12.5 to 50	–	86 to 90	COc1cc2c(Oc3ccc(NS(=O)(=O)c4ccccc4OC(F)(F)F)cc3F)ccnc2cc1OCCCN1CCN(C)CC1 [Example 25, N-(3-Fluoro-4-{6-methoxy-7-[3-(4-methyl-piperazin-1-yl)-propoxy]-quinolin-4-yloxy}-phenyl)-2-trifluoromethoxy-benzenesulfonamide]	≤ 10	≤ 12.5	–	≤ 12.5	–	≤ 12.5	≤ 12.5	≤ 12.5	≤ 12.5	–	–	–
12.5 to 50	–	–	12.5 to 50	≤ 12.5	–	168 to 170	COc1cc2c(Oc3ccc(NS(=O)(=O)c4cccc(C)c4)cc3F)ccnc2cc1OCCCN1CCCC(C)C1 (centres unmarked) [Example 70, N-(3-Fluoro-4-{6-methoxy-7-[3-(3-methyl-piperidin-1-yl)-propoxy]-quinolin-4-yloxy}-phenyl)-3-methyl-benzenesulfonamide]	≤ 10	12.5 to 50	–	12.5 to 50	–	12.5 to 50	≤ 12.5	≤ 12.5	≤ 12.5	–	–	–

Structure (SMILES)	IC50 [6, 13] [µM]	IC50 [10, 16] [µM]	IC50 [10, 17] [µM]	IC50 [10, 18] [µM]	IC50 [10, 19] [µM]	IC50 [10, 20] [µM]	melting point [°C]	IC50 [1] [µM]	IC50 [2] [µM]	IC50 [3] [µM]	IC50 [4] [µM]	IC50 [5, 11] [µM]	IC50 [5, 12] [µM]	IC50 [7] [µM]	IC50 [8, 14] [µM]	IC50 [9, 15] [µM]	IC50 ([6]; cell vitality assay, MDA-MB231, Table IIc, read-out: IC50 MDA-MB231) [µM]	IC50 ([8]; cell vitality assay, U118, Table IIc, read-out: IC50 U118) [µM]	IC50 ([9]; cell vitality assay, SF126, Table IIb, read-out: IC50 SF126) [µM]
COc1cc2c(Oc3ccc(NS(=O)(=O)c4cc(F)ccc4F)cc3F)ccnc2cc1OCCCN1CCCCC1 [Example 1, 2,5-Difluoro-N-{3-fluoro-4-[6-methoxy-7-(3-piperidin-1-yl-propoxy)-quinolin-4-yloxy]-phenyl}-benzenesulfonamide]	12.5 to 50	≤ 12.5	≤ 12.5	≤ 12.5	≤ 12.5	≤ 12.5	206 to 208	≤ 10	12.5 to 50	≤ 12.5	≤ 12.5	≤ 12.5	12.5 to 50	≤ 12.5	≤ 12.5	≤ 12.5	≤ 12.5	≤ 12.5	≤ 12.5
